Experimental findings from patent US5276023A, “19-nor-steroid esters” (Roussel Uclaf, priority 1989, dated 1994) are described below.

The test system of one assay is rat thymocytes. Description: anti-glucocorticoid activity vis-a-vis dexamethasone: incorporation of uridine in rat thymocytes. The class given is cell-based. To be noted: for inhibition at 1 µM / inhibition at 0.1 µM / inhibition at 0.01 µM: Rattus norvegicus, Thymocyte, 3 h; for inhibition at 1 µM / inhibition at 0.1 µM / inhibition at 0.01 µM / % of inhibition of the incorporation of uridine: with 5×10^-8 M dexamethasone, 3 hours at 37° C.; for antiglucocorticoid activity: conclusion in words from the thymocyte study. The source says: 2) Anti-glucocorticoid activity vis-a-vis dexamethasone
Incorporation of uridine in rat thymocytes
Glucocorticoids cause an inhibition of the incorporation of nucleosides in lymphoid tissue and the measurement of the incorporation of radio-active uridine in the thymocytes in the presence of a product under test allow its glucocorticoid activity to be evaluated.
It was in accordance with the technique described by Dausse et al (3). The thymus of a suprarenalectomized rat weighing 160 to 180 g was removed, shredded and homogenized slowly using a teflon-flask homogenizer in Hanks solution. The cellular suspension obtained was filtered on gauze and then centrifuged at 800 g×10 mn. A new centrifugation was then carried out at 800 g×10 mn. The deposit was suspended in a nutritive medium (M.E.M. Gibco) and the cellular concentration was adjusted to approximately 20×10^6 cells per ml. Aliquots of 250 ul were then incubated under carbogen for 3 hours at 37° C. with 5×10^-8 M of dexamethasone in the presence or not of increasing concentrations of product (10^-8 M to 10^-6 M). 0.1 uCi of tritiated uridine was then added to each incubate and the incubation was continued for one hour. The incubates were then cooled and 1 ml of a cold solution of trichloracetic acid (TCA) at 5 % weight/volume was added. The precipitates were collected on Whatman GF/C filters and were washed with 4×2 ml of 5% iced TCA. The radioactivity retained on the filters (representing the tritiated uridine incorporated in the thymocytes) was measured using a liquid scintillation spectrometer.

The target of another assay is T1, Progesterone receptor (Oryctolagus cuniculus, UniProt P06186).
T1 construct: from tissue; host or cells: uterus cytosol (105,000 g supernatant) of impuberal female rabbits treated with estradiol
T1 sequence (P06186 1-930): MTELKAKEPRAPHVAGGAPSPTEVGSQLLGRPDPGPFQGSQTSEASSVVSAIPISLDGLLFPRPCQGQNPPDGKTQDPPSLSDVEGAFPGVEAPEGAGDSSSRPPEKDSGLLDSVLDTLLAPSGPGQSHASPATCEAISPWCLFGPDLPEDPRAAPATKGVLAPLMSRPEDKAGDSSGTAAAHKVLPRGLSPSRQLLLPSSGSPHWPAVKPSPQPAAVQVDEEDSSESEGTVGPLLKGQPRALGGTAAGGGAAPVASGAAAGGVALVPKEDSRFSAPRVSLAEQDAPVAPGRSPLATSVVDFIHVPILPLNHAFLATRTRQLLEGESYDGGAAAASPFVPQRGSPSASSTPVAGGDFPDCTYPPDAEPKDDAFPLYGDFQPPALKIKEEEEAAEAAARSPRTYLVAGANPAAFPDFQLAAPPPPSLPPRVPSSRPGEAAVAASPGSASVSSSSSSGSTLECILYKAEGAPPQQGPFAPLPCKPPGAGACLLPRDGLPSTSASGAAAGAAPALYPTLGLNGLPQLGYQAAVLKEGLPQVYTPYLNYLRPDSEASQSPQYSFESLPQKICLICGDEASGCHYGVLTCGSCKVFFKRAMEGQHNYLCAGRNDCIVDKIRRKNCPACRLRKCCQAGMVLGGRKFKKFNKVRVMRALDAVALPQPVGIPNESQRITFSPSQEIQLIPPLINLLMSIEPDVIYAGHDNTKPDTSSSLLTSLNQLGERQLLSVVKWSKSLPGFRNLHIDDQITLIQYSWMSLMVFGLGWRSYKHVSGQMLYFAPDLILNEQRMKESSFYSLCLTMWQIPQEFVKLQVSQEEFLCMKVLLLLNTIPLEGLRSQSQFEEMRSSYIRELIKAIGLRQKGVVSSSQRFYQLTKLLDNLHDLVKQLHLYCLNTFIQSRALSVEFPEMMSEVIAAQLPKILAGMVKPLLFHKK
Description: relative bond affinity for the progesterone receptor of rabbit's uterus. In kind it is binding. The settings on record: for relative bond affinity (RBA), Progesterone 2H: 2 hours incubation at 0° C.; for relative bond affinity (RBA), Progesterone 2H / relative bond affinity (RBA), Progesterone 24H: tritiated R 5020 5 nM, RBA=100 (CH)/(CX), reference cold progesterone; for relative bond affinity (RBA), Progesterone 24H: 24 hours incubation at 0° C.; for antiprogesterone activity: conclusion in words from the receptor binding study. Here is the method:
1) Measurement of the relative bond affinity for the receptors of steroid hormones:
Progesterone receptor of rabbit's uterus:
Impuberal female rabbits weighing about 1 kg received a cutaneous application of 25 ug of estradiol and five days after this treatment, the animals were killed and the uteruses were removed, weighed and homogenized at 0° C. using a Potter teflon-flask in a (TS) 10 mM Tris, 0.25M saccharose, HCl pH 7.4 buffer (1 g of tissue per 50 ml of TS). The homogenate was then ultra-centrifuged (105,000 g×90 mn) at 0° C. […] The concentration of bonded tritiated R 5020 (B) was then measured in each incubate by the technique of adsorption with carbon-dextran.
Calculation of the relative bond affinity:
The calculation of the relative bond affinity (RBA) was identical for all receptors. The following two curves were drawn: the percentage of bonded tritiated hormone B/T as a function of the logarithm of the concentration of the cold reference hormone and B/T as a function of the logarithm of the concentration of the cold product under test. The straight line of the equation:
B max=Percentage of bonded tritiated hormone for an incubation of this tritiated hormone at the concentration (T).
B min=Percentage of bonded tritiated hormone for an incubation of this tritiated hormone at the concentration (T) in the presence of a great excess of cold hormone (2500×10^-9 M).
The intersections of the straight line I50 and the curves allowed the evaluation of the concentrations of the cold reference hormone (CH) and of the cold product under test (CX) which inhibited by 50% the bonding of the tritiated hormone on the receptor. The relative bond affinity (RBA) of the product under test was determined by the equation RBA=100 (CH)/(CX)

As a reminder, the inhibition is the relative decrease from the control value, in per cent.

For `CN(C)c1ccc([C@H]2C[C@@]3(C)[C@@H](CC[C@]3(C#CCl)OC(=O)CCC(=O)O)[C@@H]3CCC4=CC(=O)CCC4=C32)cc1` [Example 10, Sodium and 21-chloro-11β-[4-dimethylamino-phenyl]-19-nor-17α-Δ^4,9-pregnadien-3-one-20-yn-17β-yl succinate], the inhibition at 1 µM in the assay with rat thymocytes (product at 10^-6 M) came out at 78%. The inhibition at 0.1 µM in the assay on rat thymocytes (product at 10^-7 M) was 19%. Besides, the inhibition at 0.01 µM in the assay on rat thymocytes (product at 10^-8 M) worked out at 0%. In addition, on Progesterone receptor, the “relative bond affinity (RBA), Progesterone 2H” value is 3; the “relative bond affinity (RBA), Progesterone 24H” value came out at 13; the antiprogesterone activity result is listed as “good”.
As for `CC#C[C@]1(OC(=O)CCC(=O)O)CC[C@H]2[C@@H]3CCC4=CC(=O)CCC4=C3[C@@H](c3ccc(SC)cc3)C[C@@]21C` [Example 12, Sodium and 11β-[4-methylthio-phenyl]-17α-(1-propynyl)-Δ^4,9 estradien-3-one-17β-yl succinate], the inhibition at 1 µM in the assay with rat thymocytes (product at 10^-6 M) was found to be 104%. The inhibition at 0.1 µM in the assay with rat thymocytes (product at 10^-7 M) turned out to be 62%. For the same molecule, the inhibition at 0.01 µM in the assay on rat thymocytes (product at 10^-8 M) worked out at 8%. Besides, in the assay with rat thymocytes, the antiglucocorticoid activity entry is reported as “good”. In addition, at Progesterone receptor, the “relative bond affinity (RBA), Progesterone 2H” value is listed as 1,2; the “relative bond affinity (RBA), Progesterone 24H” value was 3,6; the antiprogesterone activity result was “good”.
As for `CN(C)c1ccc([C@H]2C[C@@]3(C)[C@@H](CC[C@@]3(O)C#CCOC(=O)CCC(=O)O)[C@@H]3CCC4=CC(=O)CCC4=C32)cc1` [Example 4, Sodium and 3-[11β-[4-dimethylamino-phenyl]-Δ^4,9-estradien-17β-ol-3-one-17α-yl]-2-propynyl succinate], the inhibition at 1 µM with rat thymocytes (product at 10^-6 M) amounted to 22%. Moreover, in the assay on rat thymocytes (product at 10^-7 M), the inhibition at 0.1 µM turned out to be 2.5%. For the same molecule, the inhibition at 0.01 µM with rat thymocytes (product at 10^-8 M) came out at 0%. In addition, at Progesterone receptor, the “relative bond affinity (RBA), Progesterone 2H” value amounted to 14 and the “relative bond affinity (RBA), Progesterone 24H” value stood at 26.
With `CC#C[C@]1(OC(=O)CCC(=O)O)CC[C@H]2[C@@H]3CCC4=CC(=O)CCC4=C3[C@@H](c3ccc(N(C)C)cc3)C[C@@]21C` [Example 6, Sodium 11β-[4-dimethylamino-phenyl]17α-(1-propynyl)-Δ^4,9 - estradien-3-one-17β-yl succinate], the results for the “% of inhibition of the incorporation of uridine” value in the assay with rat thymocytes (product at 10^-6 M), in the assay with rat thymocytes (product at 10^-7 M) and in the assay with rat thymocytes (product at 10^-8 M) were 78%, 27% and 0%, respectively. Besides, at Progesterone receptor, the “relative bond affinity (RBA), Progesterone 2H” value turned out to be 2. Besides, the “relative bond affinity (RBA), Progesterone 24H” value at Progesterone receptor (listed as EX. 6) is reported as 6.
Regarding `CN(C)c1ccc([C@H]2C[C@@]3(C)[C@@H](CC[C@@]3(O)/C=C\COC(=O)CCC(=O)O)[C@@H]3CCC4=CC(=O)CCC4=C32)cc1` [Example 2, Sodium (Z)-3-[11β-[4-dimethylamino-phenyl]-Δ^4,9-estradien-17β-ol-3-one-17α-yl]-2-propenyl succinate], the inhibition at 1 µM with rat thymocytes (product at 10^-6 M) was 68%. Moreover, the inhibition at 0.1 µM in the assay on rat thymocytes (product at 10^-7 M) stood at 1%. In the assay on rat thymocytes (product at 10^-8 M), the inhibition at 0.01 µM is 0%. At Progesterone receptor, the “relative bond affinity (RBA), Progesterone 2H” value is 21 and the “relative bond affinity (RBA), Progesterone 24H” value was found to be 88.
On to `CC#C[C@]1(OC(=O)CCC(=O)O)CC[C@H]2[C@@H]3CCC4=CC(=O)CCC4=C3[C@@H](c3ccc(N(C)C)cc3)C[C@@]21C` [Example 5, 11β-[4-dimethylamino-phenyl]-17-(1-propynyl)-Δ^4,9-estradien-3-one-17β-yl acid succinate], for which, in the assay on rat thymocytes, the antiglucocorticoid activity entry is given as “good”. Besides, the “% of inhibition of the incorporation of uridine” value turned out to be 135% in the assay on rat thymocytes (product at 10^-6 M), 100% in the assay on rat thymocytes (product at 10^-7 M) and 28% with rat thymocytes (product at 10^-8 M). Further, at Progesterone receptor, the “relative bond affinity (RBA), Progesterone 2H” value amounted to 2. Further, the “relative bond affinity (RBA), Progesterone 24H” value at Progesterone receptor (listed as EX. 5) amounted to 8.
